From US10064885B2, “Metabolic gene, enzyme, and flux targets for cancer therapy” (Massachusetts Institute of Technology, priority 2010, dated 2018)

What was measured:
Type in all cases: cell-based, human
[1] = test system: 143B cells; experiment: Isotopomer Spectral Analysis (ISA) of lipogenesis in 143B cells
Experimental: (§1) Cell Culture, Isotopic Labeling, and Hypoxia. All cell lines were cultured in Dulbecco's Modified Eagle Medium (DMEM; Mediatech) containing 10% fetal bovine serum (FBS; Invitrogen) and 100 U/ml penicillin/streptomycin (P/S; Mediatech) unless otherwise mentioned. Cell lines were obtained from ATCC unless otherwise noted. The VC3 glioma cell line was provided by Tim Lautenschlaeger (Ohio State University), MDA-MB-231 and HCT116 cell lines were provided by Ferdinando Chiaradonna (University of Milano-Bicocca), MRC5 cells were provided by Stephen Lippard (MIT), SN12C, ACHN, and 786-O cells were provided by Kevin Courtney and Lew Cantley (Harvard Medical School), and MCF10A cells were provided by Joan Brugge (Harvard Medical School), and Huh7 cells were provided by Mike Hemann (MIT). MCF10A cells were cultured in custom DMEM/F12 (Hyclone) containing 5% horse serum, 20 ng/ml EGF, 10 μg/ml insulin, 100 ng/ml cholera toxin, 0.5 mg/ml hydrocortisone, 100 U/ml penicillin/streptomycin, and labeled/unlabeled glucose and glutamine at 18 mM and 2.5 mM, respectively. […] The internal gas content was monitored using Fyrite gas analyzers (Bacharach) for CO2 and O2. […]
(§2) Metabolite Extraction and Gas Chromatography/Mass Spectrometry (GC/MS) Analysis. […] In some ISA experiments, cells were trypsinized, counted, and pelleted prior to lipid extraction as described above. […]

[2] = test system: A549 cells; experiment: Isotopomer Spectral Analysis (ISA) of lipogenesis in A549 cells
Experimental: as §1, §2

[3] = test system: UMRC2 cells; experiment: ISA of lipogenesis and glucose oxidation in UMRC2 cells expressing ARNT-targeting shRNAs; settings: UMRC2 cells (VHL-deficient)
Experimental: as §1, §2

**Q.** Which results are given for “CCGGGAGAAGTCAGATGGTTTATTTCTCGAGAAATAAACCATCTGACTTCTCTTT TT (CCGGGAGAAGTCAGATGGTTTATTTCTCGAGAAATAAACCATCTGACTTCTCTTTTT; expressed or natural sequence) [ARNT shRNA, pLKO.1 vector targeting ARNT with shRNA, obtained from Open Biosystems]”?
**A.** utilization of [5-13C]glutamine for lipogenesis [1]: reduced; utilization of [5-13C]glutamine for lipogenesis [2]: reduced; glucose oxidation and reductive glutamine metabolism [3]: modulates glucose oxidation and reductive glutamine metabolism
